The values that follow come from PMC9503446, “Effects of Medicinal Leech-Related Cationic Antimicrobial Peptides on Human Blood Cells and Plasma” (Molecules, 2022).

Read-outs that look alike come from different tables or passages of the source. No end group written: not given here.

Data set [1] deals with Escherichia coli. The settings on record: cited from earlier work. The source says: Table 1 Cationic antimicrobial peptides (CAMPs) used in this study and their characteristics. | column: MIC, μM (E. coli)
Data set [2] has as its system blood plasma coagulation (intrinsic and final common pathways). In words: Plasma coagulation assay, activated partial thromboplastin time (APTT). More on the design: species or system human. The settings on record: 25, 50, 100 μM peptide in plasma. How it is done: (§1) Plasma samples (50 μL) were incubated for 15 min at room temperature with 0, 25, 50 or 100 μM CAMP, and then the coagulation assay steps were carried out according the manufacturer’s instructions.
(§2) The plasma coagulation tests were performed using an APG4-03-Pkh hemostasis analyzer (EMCO Llc, Moscow, Russia) and MLT-APTT and MLT-THROMBOPLASTIN reagent kits (MLT Llc, Moscow, Russia) according to the manufacturer’s instructions. Testing was performed on Plasma N (normal), a mixed pool of citrate anticoagulated plasma obtained from healthy donors, manufactured by RENAM Rpd, Moscow, Russia. Fifty microliter plasma samples supplemented with CAMPs at different concentrations (or with PBS as control) were pre-incubated at room temperature for 15 min. Afterward, in case of measuring activated partial thromboplastin time (APTT), 50 μL of APTT Reagent were added. The samples were warmed at 37 °C for 3 min, and 50 μL of Calcium Chloride Solution were added to initiate fibrin clot formation. For measuring prothrombin time (PT), pre-incubated plasma samples were warmed at 37 °C for 1 min, and fibrin clot formation was triggered by adding 100 μL of Thromboplastin Reagent.

A further data set relates to neutrophils. In words: LDH release cytolysis assay, neutrophils. To be noted: 50 μM peptide, PBS, 0.5 h, 37 °C; Lysis solution = 100%. Here is the method: (§3) The disruptive effect of peptides on the plasma membrane of mononuclear cells and neutrophils was evaluated by the leakage of lactate dehydrogenase (LDH) from damaged cells. Experiments were run in PBS as a medium without calcium and magnesium ions, not to favor neutrophil and monocyte activation.
(§4) Aliquots of cell suspension without or with CAMPs at different concentrations were incubated at 37 °C for 0.5 h. Then, the assay steps were carried out. In each experiment, there were both mononuclear cells and neutrophils from the same healthy subject.
(§5) The cytolytic activity of CAMPs against mononuclear cells and neutrophils was determined using a lactate dehydrogenase (LDH) assay measuring LDH released upon cell lysis. Working cell suspensions in PBS supplemented with […] glucose were adjusted to an optical density of 0.12 at 800 nm, which corresponded to a cell density of about 600 × 10^3 cells/mL. LDH assay was performed using a Cytotoxicity Detection Kit^PLUS (LDH) (Roche Diagnostics, Mannheim, Germany) according to the manufacturer’s protocol. Then, 50 μL aliquots of CAMP solutions of different concentrations were placed in the wells of a microplate. The medium used for preparing CAMP solutions and the kit’s Lysis solution served for negative and positive controls, respectively. […]

The subject of a further data set is mononuclear cells. In words: LDH release cytolysis assay, mononuclear cells. To be noted: 50 μM peptide, PBS, 0.5 h, 37 °C; Lysis solution = 100%. How it is done:
as §3, §4, §5
In general terms: LDH leaks from cells whose membrane has failed.

Another data set concerns isolated neutrophils. In words: Luminol-dependent chemiluminescence, neutrophil respiratory burst. Type of data set: cell-based, human. To be noted: final peptide 5 μM or 20 μM, final plasma dilution 1:50, 37 °C. Here is the method: Neutrophils and plasma were obtained from the same person. Plasma diluted five times in complete Krebs–Ringer buffer solution was treated with 50 μM or 200 μM CAMP, with plasma dilution and CAMP concentrations being the same as in the samples for hemolysis assay. The final plasma content in samples for CL measurement was restricted to no higher than 2%, since plasma constituents can inhibit luminol-dependent CL due to the scavenging effect. Following the addition of luminol to neutrophils, light emission recording was started. Spontaneous cell activation, if it occurred, was allowed to complete, and then the CAMP-containing plasma or control plasma was added (Figure 6), yielding a final plasma dilution of 1:50 and a final CAMP concentration of 5 μM or 20 μM. […] The effect was dose-dependent (Figure 6).
Chemiluminescence study was conducted at 37 °C with a Lum-1200 chemiluminometer (DISoft Llc, Moscow, Russia) measuring the intensity of emitted light in volts. Assays were performed with the following components in a total volume of 500 μL:435 μL of neutrophil suspension (final, 0.5 × 10^6 cells/mL) in complete Krebs–Ringer buffer solution, 10 μL of luminol (final, 200 μM), 50 μL of five-fold diluted (in the above buffer solution) autologous plasma containing or not containing CAMP at a desired concentration, 5 μL of PMA (final, 160 nM).
Neutrophils were placed in chemiluminometer cuvettes and equilibrated at 37 °C in the cuvette holder, after which luminol was added to each sample and the light emission was continuously recorded. In desired time intervals, plasma mixed with CAMP (or control plasma) and then PMA were added.

Data set [3] relates to neutrophils in whole blood. In words: Neutrophil extracellular trap (NET) assay in whole blood. The data set is classed as cell-based, human. The settings on record: 100 μM peptide, ex vivo blood, 3 h, 37 °C, no PMA. How it is done:
EDTA-anticoagulated capillary blood was obtained via a finger prick. Blood aliquots of 20 μL were placed in 1.5 mL Eppendorf tubes and mixed with 2 μL of a CAMP solution (or 2 μL of PBS in controls). The samples were incubated for 3 h. After the first 1 h, PMA (100 nM final concentration) was added to a part of them, and incubation continued for a further 2 h. Cell settling was prevented by continuous gentle turning the tubes up and down using a Multi Bio RS-24 rotator (Biosan, Riga, Latvia). The blood was retained at the tube bottom by surface tension.
NET counts were performed using standardized blood smears stained by Romanowsky method. The smears were examined using a Motic B microscope (Motic, Xiamen, China). Quantitative assessment of NETs was performed as described previously. NETs among 300–500 leukocytes were counted in the middle third part of the smear, and the NETs-to-leukocyte percentage ratio was calculated. Based on counting results, the number of NETs in 1 μL of blood was calculated. In each experiment, two parallel samples were prepared and three parallel smears were taken from each at each observation point.

Data set [4] has as its system blood plasma coagulation (extrinsic and common pathways). Put plainly: Plasma coagulation assay, prothrombin time (PT). To be noted: 25, 50, 100 μM peptide in plasma. Details: species or system human. How it is done: as §1, §2
For data set [5], the system named is erythrocytes. In words: Hemolysis assay in the presence of autologous plasma. The data set is classed as cell-based, human. How it is done:
The interaction with blood plasma constituents is known to play an important role in the pharmacokinetics and effectiveness of therapeutic agents. For CAMPs, the binding in plasma could decrease their effective concentration at the site of action and, thereby, their antimicrobial activity. To elucidate whether CAMP interaction with cells is affected by plasma, presumably through CAMP binding, we performed the hemolysis assay. The erythrocyte suspension was added to the same volume of PBS containing CAMP at two times the final concentration or PBS containing both CAMP and 20% autologous plasma. Calculations for extracellular hemoglobin were made based on the negative and positive control samples containing or not containing plasma.
(§6) The hemolytic activity of CAMPs was determined using a hemolysis assay measuring hemoglobin released from damaged cells. […] The supernatant (200 μL) was transferred to the wells of a microplate, and the absorbance of hemoglobin was measured by a Thermo Electron Multiskan Ascent microplate reader (Thermo Fisher Scientific Inc., Waltham, MA, USA), with a test wavelength of 414 nm as well as 540 nm and a background wavelength of 690 nm. The hemolysis percentage was calculated using the following equation: Hemolysis (%) = {(sample absorbance − negative control)/(positive control − negative control)} × 100.

Data set [6] deals with erythrocytes. Put plainly: Hemolysis assay in the presence of human serum albumin (HSA). To be noted: 50 μM peptide, 50 μM HSA, 0.5 h, 37 °C. The data set is classed as cell-based. Here is the method: Given that the normal HSA concentration in plasma is 500–700 μM and the dilution of plasma in the final, cell-containing samples was 1:10, a final HSA concentration of 50 μM was applied. Then, 100 μM CAMP working solutions were made up in PBS or PBS containing 100 μM or 70 μM HSA to give final concentrations of 50 μM CAMP and 50 μM or 35 μM HSA.
as §6, with “cells. A working erythrocyte suspension (in PBS) was prepared so that its ten-fold dilution gave an optical density of 0.4 at 800 nm. This working suspension corresponded to a cell density of about 30 × 10^6 cells/mL. Aliquots of 125 μL of CAMP solutions of different concentrations were added to Eppendorf tubes.” for “cells.”

In data set [7] the test system is erythrocytes. Put plainly: Hemolysis assay, erythrocytes in PBS. Type of data set: cell-based, human. The settings on record: 0.5 h, 37 °C. How it is done: Erythrocytes were incubated (0.5 h, 37 °C) with different CAMP concentrations ranging from 6.25 μM to 100 μM. Incubation conditions chosen were similar to those used in other studies. Following incubation, the samples were centrifuged, and the supernatant analyzed spectrophotometrically for hemoglobin at 414 nm and 540 nm. Absorption at 414 nm provides higher sensitivity. The results were the same no matter which wavelength was used to monitor for hemoglobin.
as §6, with “cells. A working erythrocyte suspension (in PBS) was prepared so that its ten-fold dilution gave an optical density of 0.4 at 800 nm. This working suspension corresponded to a cell density of about 30 × 10^6 cells/mL. Aliquots of 125 μL of CAMP solutions of different concentrations were added to Eppendorf tubes.” for “cells.”

The conditions of data set [8]: preparation of 2 mM stock solution; dissolved with PBS containing 4% DMSO.
Procedure: First, 2 mM stock solutions of CAMPs were prepared in PBS, except for the CAMPs pept_1 and pept_2. […] Its 2 mM solution was made up using PBS containing 4% DMSO (PBS/DMSO), which gave a final DMSO concentration not higher than 0.2% in any of experiments. […] Therefore, negative controls containing relevant concentrations of DMSO were run for pept_1 and pept_2, and DMSO contribution was eliminated by subtracting the measured value in the negative control samples from that in the test samples.
Data set [9] concerns Escherichia coli. Put plainly: MIC determination, microtiter dilution. To be noted: present study, two-fold dilution series in MHB, 37 °C, 24 h, turbidity at 560 nm, mean of three independent experiments. Type of data set: cell-based, Escherichia coli str. K12 substr. MG1655. Here is the method: CAMPs were designed and synthesized as described previously in our works. The minimum inhibitory concentrations (MICs) for the Gram-negative bacterium Escherichia coli and Gram-positive bacterium Bacillus subtilis were determined earlier or in the present study. The MIC values for Escherichia coli were the same or higher than those for Bacillus subtilis. The CAMP concentrations tested were in the range up to 100 μM.
Escherichia coli str. K12 substr. MG1655 (Invitrogen) and Bacilus subtilis str. 168HT (Vavilov Institute of General Genetics, Russian Academy of Sciences, Moscow, Russia) were grown in Luria–Bertani broth (Difco, BD Difco, Thermo Fisher Scientific Inc., Waltham, MA, USA) according to standard procedure. Bacteria were stored with 10% glycerol at −70 °C until use. MIC determination was carried out by growing bacteria in 96-well microtitration plates in the presence of a two-fold dilution series of the peptide using the standard microtiter dilution method. Briefly, single bacterial clones were cultured overnight in Mueller–Hinton broth (MHB, BD Difco, Thermo Fisher Scientific Inc., Waltham, MA, USA) at 150 rpm and 37 °C, then transferred to fresh MHB and cultured until the logarithmic growth phase. […] After incubation at 37 °C for 24 h, the antimicrobial susceptibility was estimated by turbidity measurement at 560 nm using a microplate reader. […]

Turning to “RPILIRVRRIRVI-NH2 (C-terminus assumed) [pept_5]”, in the data set with Escherichia coli [1], the “MIC (E. coli)” value was 77 µM. Moreover, the “APTT change from the control value” in data set [2] is “No significant APTT change”. For the same substance, in the data set with neutrophils, the “Lysis of neutrophils (LDH release)” value is on record as about 15%. The “Lysis of mononuclear cells (LDH release)” value in the data set on mononuclear cells was “about 20%”. Besides, the “Neutrophil respiratory burst (luminol-dependent chemiluminescence) in response to peptide-pretreated plasma” value with isolated neutrophils is listed as “no development of the respiratory burst”. Besides, the “NET concentration versus control blood” value in data set [3] was “No significant difference”. Also, the “Effect on PT” value in [4] is “not significantly affected”. Besides, the “Effect of plasma on CAMP-induced hemolysis” value in the data set on erythrocytes [5] (50 μM final peptide (100 μM mixed with five-fold diluted plasma)) is given as “complete inhibition”. The “Effect of plasma on the hemolytic effect” value in the data set with erythrocytes [5] (100 μM final peptide, autologous plasma final dilution 1:10, 0.5 h, 37 °C) is given as “completely inhibited”.
Consider FRIMRILRVLKL-NH2 [pept_1], for which, in the data set with erythrocytes [6], the “Inhibition of CAMP-induced hemolysis by HSA” value is reported as “nearly completely”. Also, in the data set with erythrocytes [7] (hemolysis assay, rough estimate, read-out: Concentration at which 50% lysis was achieved, erythrocytes), the EC50 is 65 µM. The “Solubility in PBS” value in data set [8] is on record as “poorly soluble in PBS”.
For the substance FRIMRILRVLK-NH2 [pept_2], the “MIC (E. coli)” value with Escherichia coli [9] turned out to be 10 µM. The Hemolysis in the data set with erythrocytes [7] (100 μM peptide in PBS, no plasma, Triton X-100 = 100%) is listed as 10–15%.
